In US9090549B2, “1,4-naphthoquinones derivatives and therapeutic use thereof” (CENTRE NATIONAL DE LA RECHERCHE SCIENTIFIQUE (C.N.R.S.), priority 2008, dated 2015):
pIC50: −log10 of the molar value.

How the values were obtained:
[1] = molecular target: P. falciparum glutathione reductase (PfGR) (Plasmodium falciparum, UniProt Q94655); experiment: 1,4-Naphthoquinone reductase activity of P. falciparum glutathione reductase; format: biochemical; settings: for substrate behaviour from catalytic efficiencies kcat/KM: with respect to menadione; for increased catalytic efficiency (kcat/KM) with respect to menadione: relative to menadione
Experimental: The reduction assay mixture consisted of 100 mM potassium phosphate buffer pH 6.9, 200 mM KCl, 1 mM EDTA and 100 μM NADPH in a total volume of 1 mL. 1,4-naphthoquinone reductase activity was determined by recording the initial velocities in the presence of increasing naphthoquinone concentrations (0-300 μM). […] For the determination of KM and Vmax values, the steady-state rates were fitted by using nonlinear regression analysis software (Kaleidagraph) to the Michaelis-Menten equation. From these values, the turnover number kcat and the catalytic efficiency kcat/KM were calculated.

[2] = system: P. berghei ANKA; experiment: In vivo 4-day suppressive test in P. berghei-infected mice; set-up: species or system Plasmodium berghei; settings: for activity on 4-day treatment: P. berghei-infected mice
Experimental: The in vivo tests in the mouse model were done according to a standard protocol (Peters et al Handbook of Animal Models of Infection; Academic Press, London, 1999; pp. 756-771). […] […] For administration, compounds were freshly prepared in 10% DMSO in sterile phosphate-buffered saline the day of use. Two hours post-infection mice received the first treatment by the intraperitoneal route. Mice were further treated on days +1-3. Blood films from tail blood were prepared on day +4, and parasitaemia was determined by microscopic examination of Giemsa-stained blood films. […] […] Mice were treated and levels of parasitemia determined as described.

[3] = system: P. falciparum multidrug-resistant strain Dd2; experiment: Dd2 growth inhibition, 3H-hypoxanthine assay; format: cell-based, Plasmodium falciparum; settings: Plasmodium falciparum, DD2, 48 h exposure then 24 h hypoxanthine; read-out: IC50 against Dd2
Experimental: The IC50 was tested by standard in vitro antiproliferation assays (Desjardins et al, 1979 Antimicrob. Agents Chemother 1979, 16, 710-718). Infected erythrocytes in ring stage (0.5% parasitemia, 2.5% hematocrit) in 96-well plates were exposed to the compounds for 48 h and then to radioactive hypoxanthine for 24 h. The amount of radioactivity in precipitable material served as an index of cell proliferation.

[4] = system: Pf-GHA; experiment: Pf-GHA growth inhibition, colorimetric NBT-based lactate dehydrogenase assay; format: cell-based; settings: Plasmodium falciparum; 72 h incubation; read-out: IC50 against Pf-GHA
Experimental: (§1) The IC50 values against Pf-GHA and MRC-5 were determined by using the less sensitive colorimetric NBT-based lactate dehydrogenase assay (Makler et al, Am. J. Trop. Med. Hyg. 1993, 48 (6), 739-741) based on redox-reactions.
In Vitro Antiparasitic Bioassays. The strain is maintained in RPMI-1640 medium supplemented with 0.37 mM hypoxanthine, 25 mM HEPES, 25 mM NaHCO3, and 10% O^+ human serum together with 2-4% washed human O^+ erythrocytes. All cultures and assays are conducted under an atmosphere of 4% CO2, 3% O2 and 93% N2. Assays are performed in 96-well microtiter plates, each well containing 10 μL of the watery compound dilutions together with 190 μL of the malaria parasite inoculum (1% parasitaemia, 2% HCT). After 72 h incubation, plates are frozen and stored at −20° C. After thawing, 20 μL of each well is transferred into another plate together with 100 μL Malstat reagent and 20 μL of 1/1 mixture of PES (phenazine ethosulfate, 0.1 mg/mL) and NBT (Nitro Blue Tetrazolium Grade III, 2 mg/mL). Change in colour is measured spectrophotometrically at 655 nm. The results are expressed as % reduction in parasitaemia compared to control wells. Compounds are treated at 5 concentrations (64-16-4-1 and 0.25 μM or μg/mL).

[5] = molecular target: T1, human glutathione reductase (hGR) (Homo sapiens, UniProt P00390); experiment: Inhibition of human glutathione reductase under steady-state conditions; format: biochemical; settings: pH 6.9, 25° C., 1 mM GSSG, 100 μM NADPH
T1 sequence (P00390 44-522): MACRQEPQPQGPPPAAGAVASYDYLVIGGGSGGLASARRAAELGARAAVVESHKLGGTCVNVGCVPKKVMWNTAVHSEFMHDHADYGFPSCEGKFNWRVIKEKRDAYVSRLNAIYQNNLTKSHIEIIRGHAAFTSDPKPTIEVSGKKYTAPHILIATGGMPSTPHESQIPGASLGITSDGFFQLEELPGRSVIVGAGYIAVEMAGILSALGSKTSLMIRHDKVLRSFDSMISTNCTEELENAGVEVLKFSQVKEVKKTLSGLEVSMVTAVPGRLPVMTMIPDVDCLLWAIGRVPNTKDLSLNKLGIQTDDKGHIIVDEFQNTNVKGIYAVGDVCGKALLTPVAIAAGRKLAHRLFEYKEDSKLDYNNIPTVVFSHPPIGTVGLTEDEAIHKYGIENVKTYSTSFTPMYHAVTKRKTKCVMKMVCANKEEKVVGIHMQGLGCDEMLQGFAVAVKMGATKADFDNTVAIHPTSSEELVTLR

[6] = molecular target: methemoglobin(Fe3+) (Homo sapiens, UniProt P68871+P69905); experiment: Redox-cycling of methemoglobin(Fe3+) into oxyhemoglobin(Fe2+) with NADPH/GR system; format: biochemical
Description: Since FPIX(Fe^2+) is an inhibitor of hematin polymerization, compounds displaying the ability to reduce FPIX(Fe^3+) into FPIX(Fe^2+) might synergistically contribute with GR inhibition to increased oxidative stress in infected-red blood cells. To evaluate the redox-cycling activity of FPIX(Fe^3+) into FPIX(Fe^2+) we set up an assay using the naphthoquinone, the glutathione reductase/NADPH-based system to regenerate the dihydronaphthoquinone continuously and methemoglobin(Fe^3+) (MetHb). The UV-spectrum of MetHb between 300 nm and 700 nm is characterized by a maximal absorbance at 405 nm and a broad band centered at around 630 nm. […] We used 20 μM methylene blue as positive control of this redox-cycling activity.
In an Eppendorf tube containing 6.4 mg MetHb dissolved in 885 μL GR buffer (47 mM potassium phosphate buffer pH 6.9, 200 mM KCl, 100 mM EDTA), 10 μL 20 mM P_TM25 dissolved in DMSO and 100 μL NADPH dissolved in GR buffer were added. The reaction was started by the addition of 5 μL human GR and then incubated at 37° C. In a 1 mL cuvette 20 μL of the reaction mixture was diluted with 980 μL GR buffer and a UV-spectra between 300 nm and 700 nm was done after 5 min, 10 min, 20 min and 30 min incubation time. The final concentrations in the reaction mixture were 100 μM MetHb, 200 μM P_TM25, 400 μM NADPH and […] hGR, final DMSO concentration 1%.
Spectra were measured after 5 min (blue), 10 min (black), 20 min (green) and 30 min (red).

[7] = system: P. falciparum chloroquine resistant strain K1; experiment: K1 growth inhibition, 3H-hypoxanthine assay; format: cell-based, Plasmodium falciparum; settings: Plasmodium falciparum, K1; read-out: IC50 against Pf K1
Experimental: as §1
(§2) Parasite Cultures. […] P. falciparum in vitro culture was carried out using standard protocols (Trager et al, 1976 Science, 193, 673-675) with modifications. Briefly, parasites were maintained in tissue culture flasks in human A Rh+ erythrocytes at 5% hematocrit in RPMI 1640 supplemented with 25 mM HEPES, 24 mM NaHCO3, 0.2% (w/v) glucose, 0.03% L-glutamine, 150 μM hypoxanthine, and 0.5% Albumax II® (Invitrogen) in a 5% CO2/air mixture at 37° C., and the medium was changed daily.
(§3) In Vitro Antiparasitic Bioassays. Drug susceptibility of P. falciparum was studied using a modified method (Cameron et al, 2004 J. Biol. Chem. 279, 31429-31439) of the protocol described previously (Desjardins et al, 1979). All assays included CQ diphosphate (Sigma, UK) as a standard and control wells with untreated infected and uninfected erythrocytes. IC50 values were derived by sigmoidal regression analysis (Microsoft Xlfit™).

[8] = system: P. falciparum chloroquine sensitive strain 3D7; experiment: 3D7 growth inhibition, 3H-hypoxanthine assay; format: cell-based, Plasmodium falciparum; settings: Plasmodium falciparum, 3D7; read-out: IC50 against Pf 3D7
Experimental: as §1, §2, §3

Sequence of P. falciparum glutathione reductase (PfGR) (Q94655 2-500 limits assumed): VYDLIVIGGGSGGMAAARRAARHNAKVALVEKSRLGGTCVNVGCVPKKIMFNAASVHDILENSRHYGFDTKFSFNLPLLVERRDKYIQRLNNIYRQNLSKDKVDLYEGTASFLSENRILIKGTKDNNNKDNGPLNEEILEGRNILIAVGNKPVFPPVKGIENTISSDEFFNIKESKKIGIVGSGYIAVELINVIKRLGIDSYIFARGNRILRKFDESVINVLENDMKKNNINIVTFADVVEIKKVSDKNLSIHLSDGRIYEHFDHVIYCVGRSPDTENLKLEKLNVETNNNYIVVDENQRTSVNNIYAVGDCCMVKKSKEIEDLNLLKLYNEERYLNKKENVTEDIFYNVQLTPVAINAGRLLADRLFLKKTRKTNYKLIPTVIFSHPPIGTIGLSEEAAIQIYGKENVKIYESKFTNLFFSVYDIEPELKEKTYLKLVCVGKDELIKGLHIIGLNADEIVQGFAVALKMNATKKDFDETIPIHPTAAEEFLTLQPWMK
Sequence of methemoglobin(Fe3+) (P69905 2-142 limits assumed): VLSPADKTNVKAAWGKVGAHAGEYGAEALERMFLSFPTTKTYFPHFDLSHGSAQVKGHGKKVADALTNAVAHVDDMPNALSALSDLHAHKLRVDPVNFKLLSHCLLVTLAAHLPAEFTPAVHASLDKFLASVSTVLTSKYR
Sequence of methemoglobin(Fe3+) (P68871 2-147 limits assumed): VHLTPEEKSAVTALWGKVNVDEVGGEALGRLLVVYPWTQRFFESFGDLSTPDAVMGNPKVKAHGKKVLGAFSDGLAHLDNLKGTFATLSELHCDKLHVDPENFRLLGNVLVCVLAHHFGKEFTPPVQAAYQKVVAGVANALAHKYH

Molecule	substrate behaviour from catalytic efficiencies kcat/KM [1]	melting point	pIC50 [3]	pIC50 [4]	other results
COc1ccc(C(=O)C2=C(C)C(=O)C3C=CC=CC3C2=O)cc1 (stereo not shown) [P_TM34, 2-Methyl-3-(4-methoxy-benzoyl)-4a,8a-dihydro-[1,4]naphthoquinone]	very effective substrates	150 to 151 °C			
CC1=C(Cc2ccc(C(C)(C)C)cc2)C(=O)C2C=CC=CC2C1=O (stereo not shown) [P_TM43, 2-Methyl-3-(4-tert-butyl-benzyl)-4a,8a-dihydro-[1,4]naphthoquinone]		60 to 61 °C	> 7.00		reduction in parasitaemia ([2]; daily dose of 30 mg/kg, intraperitoneal, 4-day test, mice): 43.4%; activity on 4-day treatment ([2]; intraperitoneal): significant activity
CC1=C(Cc2ccc(Br)cc2)C(=O)C2C=CC=CC2C1=O (stereo not shown) [P_TM24, 2-Methyl-3-(4-bromo-benzyl)-4a,8a-dihydro-[1,4]naphthoquinone]		121 to 122 °C	> 7.00	> 5.30	decrease in parasitaemia ([2]; daily dose of 50 mg/kg ip, 4-day test, mice): 35.6%; activity on 4-day treatment ([2]; intraperitoneal): significant activity
CC1=C(C(=O)c2ccc(Br)cc2)C(=O)C2C(O)=CC=CC2C1=O (stereo not shown) [P_TM47, 3-(4-bromo-benzoyl)-5-hydroxy-2-methyl 4a,8a-dihydro-[1,4]naphthoquinone]	very effective substrates	161 to 162 °C			increased catalytic efficiency (kcat/KM) with respect to menadione [1]: 6.3 fold
CC1=C(C(=O)c2ccc(O)cc2)C(=O)C2C=CC=CC2C1=O (stereo not shown) [P_TM39, 2-Methyl-3-(4-hydroxy-benzoyl)-4a,8a-dihydro-[1,4]naphthoquinone]	very effective substrates	184 to 185 °C		> 5.30	
CC1=C(Cc2ccc(C(F)(F)F)cc2)C(=O)c2ccccc2C1=O [P_TM29]					pIC50 [5]: 5.80
CC1=C(C(=O)c2ccc([N+](=O)[O-])cc2)C(=O)C2C=CC=CC2C1=O (stereo not shown) [P_TM40, 2-Methyl-3-(4-nitro-benzoyl)-4a,8a-dihydro-[1,4]naphthoquinone]	very effective substrates	170 to 171 °C	6.99		increased catalytic efficiency (kcat/KM) with respect to menadione [1]: 3.9 fold
CC1=C(Cc2ccc(O)cc2)C(=O)C2C=CC=CC2C1=O (stereo not shown) [P_TM36, 2-Methyl-3-(4-hydroxy-benzyl)-4a,8a-dihydro-[1,4]naphthoquinone]		165 to 166 °C	> 7.00	> 5.30	activity on 4-day treatment ([2]; intraperitoneal): significant activity
CN(C)c1ccc2nc3ccc(=[N+](C)C)cc-3sc2c1 [Methylene Blue, reference compound]					shift of λmax of MetHb ([6]; 20 μM Methylene Blue, same conditions): clear shift
2-Methyl-3-(fluoro-benzoyl)-4a,8a-dihydro-[1,4]naphthoquinone [P_TM27]	very effective substrates				Km ([1]; pH 6.9, 100 μM NADPH, 1% DMSO): 56.1 µM
CC1=C(Cc2ccc(C)cc2)C(=O)C2C=CC=CC2C1=O (stereo not shown) [P_TM21, 2-Methyl-3-(4-methyl-benzyl)-4a,8a-dihydro-[1,4]naphthoquinone]		225 °C (dec.)	6.10	> 5.30	pIC50 [7]: 7.00; pIC50 [8]: 6.57
CC1=C(CC2=CC(=O)C=CC2=O)C(=O)C2C=CC=CC2C1=O (stereo not shown) [P_TM63, 2-(3,6-Dioxo-cyclohexa-1,4-dienylmethyl)-3-methyl-4a,8a-dihydro-[1,4]naphthoquinone]	very effective substrates				increased catalytic efficiency (kcat/KM) with respect to menadione [1]: 17.2 fold
CC1=C(C(=O)c2ccc(Br)cc2)C(=O)C2C=CC=CC2C1=O (stereo not shown) [P_TM25, 2-Methyl-3-(4-bromo-benzoyl)-4a,8a-dihydro-[1,4]naphthoquinone]	very effective substrates	170 to 171 °C			concentration at which the shift of maximal absorbance of MetHb from 405 to 410 nm starts being visible ([6]; 100 μM MetHb, NADPH, human GR): 50 µM; redox-cycling of methemoglobin in the presence of GR ([6]; 200 μM P_TM25, 100 μM MetHb, 400 μM NADPH, human GR, 37° C.): can undergo redox-cycling of methemoglobin
